What all share (test): inhibition of tumour cell growth, NCI panel, 48 h
Assay [1] relates to A498.
Assay [2] deals with MDA-MB-435.
Assay [3] relates to HCC 2998.
Assay [4] relates to IGROV-1.
The subject of assay [5] is UACC-62.
The test system of assay [6] is CCRF-CEM.
Assay [7] has as its system ACHN.
In assay [8] the test system is HOP-92.
Assay [9] concerns CAKI-1.
The test system of assay [10] is NCI-H23.
Assay [11] concerns SF-539.
The subject of assay [12] is SK-MEL-5.
The subject of assay [13] is M14.
For assay [14], the system named is MDA-N.
Assay [15] concerns MDA-MB-231.
The test system of assay [16] is BT-549.
Assay [17] deals with MCF7.
The subject of assay [18] is SR.
Assay [19] has as its system OVCAR-5.
Assay [20] deals with EKVX.

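48-hour exposure; five concentrations; linearly interpolated endpoints. Abbreviation: GI50, concentration required for 50% inhibition of growth.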 Activity calls are given as the source filed them. Rule as the data show it: active = GI50 up to about 1.1 µM and inactive = higher.

As to `CC[C@@]1(O)C(=O)OCc2c1cc1n(c2=O)Cc2c-1nc1ccc(N)cc1c2CC[Si](C)(C)C`, the GI50 in assay [1] was < 0.01 µM (active); in [2], < 0.01 µM (active); in [3], < 0.0111 µM (active); in assay [4] it was < 0.01 µM (active); in assay [5], < 0.01 µM (active); in assay [6] it was < 0.01 µM (active). Also, the GI50 in [7] was < 0.01 µM (active); in assay [8], < 0.025 µM (active); in [9], < 0.01 µM (active); in [10], < 0.01 µM (active); in [11] it was < 0.01 µM (active); in assay [12] it was < 0.01 µM (active). Besides, the GI50 was < 0.01 µM (active) in [13]; < 0.01 µM (active) in assay [14]; < 0.0363 µM (active) in [15]; < 0.01 µM (active) in assay [16]; < 0.01 µM (active) in assay [17]; < 0.01 µM (active) in assay [18]. The GI50 in assay [19] was < 0.0223 µM (active); in [20], < 0.0212 µM (active).

On to `O=C1CSC2(CC(/C=C/C=C/c3ccccc3)=NN2c2cccc(S(=O)(=O)O)c2)N1c1nc2ccccc2s1` (stereo not given), for which the GI50 was 26.4 µM (inactive) in assay [1]; 21.6 µM (inactive) in [2]; 69.7 µM (inactive) in [3]; 33.7 µM (inactive) in assay [4]; 35.2 µM (inactive) in assay [5]; 20.8 µM (inactive) in [6]. Besides, the GI50 in assay [7] was 40.3 µM (inactive); in assay [8] it was 34.8 µM (inactive); in assay [9], 54.5 µM (inactive); in [10], 43.8 µM (inactive); in [11], 51.1 µM (inactive); in assay [12] it was 35.2 µM (inactive). Further, the GI50 was 60.4 µM (inactive) in assay [13]; 52 µM (inactive) in assay [14]; 31.3 µM (inactive) in [15]; 51.5 µM (inactive) in assay [16]; 29.6 µM (inactive) in assay [17]; 21.2 µM (inactive) in assay [18]. The values for the GI50 in assay [19] and in assay [20] were > 100 µM (inactive) and 49 µM (inactive), respectively.

For the molecule `COC(=O)/C=C1/OC(c2ccc(OC)cc2)=C(Cl)C1=O`, the GI50 in assay [1] was 22.5 µM (inactive); in assay [2], 15.6 µM (inactive); in assay [3], 21.3 µM (inactive); in assay [4], 16.9 µM (inactive); in [5], 17.4 µM (inactive); in [6] it was 4.78 µM (inactive). Moreover, the GI50 in [7] is 17.3 µM (inactive); in assay [8] it was 23.1 µM (inactive); in assay [9], 13.5 µM (inactive); in assay [10] it was 17.6 µM (inactive); in [11], 19.1 µM (inactive); in assay [12], 14 µM (inactive). For the same molecule, the GI50 in assay [13] is 16.9 µM (inactive); in assay [14], 16.7 µM (inactive); in assay [15], 12.3 µM (inactive); in assay [16] it was 13.3 µM (inactive); in [17], 8.32 µM (inactive); in assay [18], 1.61 µM (inactive). Further, the figures for the GI50 in assay [19] and in assay [20] were 17.1 µM (inactive) and 19.1 µM (inactive), respectively.

Regarding `O=C(C#Cc1ccccc1)N1CCCCC1`, the GI50 was > 100 µM (inactive) in assay [1]; 63.5 µM (inactive) in [2]; 84.7 µM (inactive) in [3]; 65 µM (inactive) in [4]; > 100 µM (inactive) in assay [5]; 50.8 µM (inactive) in assay [6]. For the same molecule, the GI50 in [7] was 58.1 µM (inactive); in assay [8], > 100 µM (inactive); in [9], 83.9 µM (inactive); in [10] it was 45.3 µM (inactive); in assay [11], > 100 µM (inactive); in [12], 56.4 µM (inactive). For the same molecule, the GI50 was 84.1 µM (inactive) in [13]; 86.5 µM (inactive) in assay [14]; 72.3 µM (inactive) in assay [15]; > 100 µM (inactive) in assay [16]; 44.4 µM (inactive) in assay [17]; 80.4 µM (inactive) in assay [18]. In addition, the GI50 is > 100 µM (inactive) in assay [19] and 63.2 µM (inactive) in [20].

`CCCNC1=C2C[C@@H](C)C[C@@H](OC)[C@@H](OC(=O)CCCN)[C@H](C)/C=C(\C)[C@@H](OC(N)=O)[C@H](OC)/C=C\C=C(/C)C(=O)NC(=CC1=O)C2=O`: the GI50 in assay [1] is 21.8 µM (inactive); in assay [2] it was 13 µM (inactive); in assay [3], 18.8 µM (inactive); in assay [4], 16.1 µM (inactive); in assay [5], 13.9 µM (inactive); in assay [6] it was 2.52 µM (inactive). For the same molecule, the GI50 in assay [7] was 19.4 µM (inactive); in assay [8], 12.7 µM (inactive); in assay [9], 20.3 µM (inactive); in assay [10], 11.6 µM (inactive); in assay [11], 20.3 µM (inactive); in assay [12], 9.29 µM (inactive). In addition, the GI50 is 15.2 µM (inactive) in assay [13]; 10.3 µM (inactive) in assay [14]; 14.1 µM (inactive) in [15]; 13.2 µM (inactive) in [16]; 7.69 µM (inactive) in assay [17]; 7.98 µM (inactive) in [18]. For the same molecule, the values for the GI50 in assay [19] and in [20] were 15.2 µM (inactive) and 17.6 µM (inactive), respectively.

`COC(=O)C1CCN(C(=O)OC(C)(C)C)CC1`: the GI50 in assay [1], in assay [2], in [3], in assay [4], in [5] and in assay [6] was > 100 µM (inactive) in each case. The GI50 in [7], in assay [8], in [9], in assay [10], in assay [11] and in assay [12] was > 100 µM (inactive) in each case. Further, the GI50 is > 100 µM (inactive) in [13]; > 100 µM (inactive) in assay [14]; > 100 µM (inactive) in assay [15]; 0.993 µM (active) in assay [16]; > 100 µM (inactive) in assay [17]; > 100 µM (inactive) in [18]. In addition, the GI50 in assay [19] and in assay [20] was > 100 µM (inactive) each time.

As to `Cc1ccc(/N=N/c2c(O)ccc3cc(S(=O)(=O)O)ccc23)c(C)c1`, the GI50 in assay [1], in [2], in assay [3], in assay [4], in assay [5] and in [6] was > 100 µM (inactive) in each case. In addition, the GI50 in [7], in [8], in assay [9], in assay [10], in assay [11] and in [12] was > 100 µM (inactive) each time. Moreover, the GI50 in assay [13], in [14], in assay [15], in assay [16], in assay [17] and in [18] was > 100 µM (inactive) throughout. The GI50 in [19] and in assay [20] was > 100 µM (inactive) throughout.
